According to the supplement of paper PMC10307832:

Tests used:
Assay in all cases: relative viability (nuclei count vs DMSO), 5 days (fraction); higher = more cells survive
BAY61-3606 + Pemetrexed = compound: COC1=C(C=C(C=C1)C2=CC3=NC=CN3C(=N2)NC4=C(C=CC=N4)C(=O)N)OC [BAY61-3606] + Nc1nc2[nH]cc(CCc3ccc(C(=O)N[C@@H](CCC(=O)O)C(=O)O)cc3)c2c(=O)[nH]1 [Pemetrexed] (partner 0.2 µM)
In short: (§1)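 After 5 days of treatment, lung cancer cells in 1536-well plates were fixed and stained in a single step (final 0.05% Triton X-100, 1% formaldehyde, 1 ug/ml Hoechst) and their nuclei counted on 4× images. Treatment had been applied by pin tool the day after seeding as one drug alone or as a fixed anchor-drug dose with five library-drug doses (not always all listed) in √10 steps. Relative viability is the nuclei count of treated wells divided by that of vehicle wells, and values are medians of duplicate plates.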

BAY61-3606 + Linsitinib = compound: COC1=C(C=C(C=C1)C2=CC3=NC=CN3C(=N2)NC4=C(C=CC=N4)C(=O)N)OC [BAY61-3606] + C[C@]1(O)C[C@@H](c2nc(-c3ccc4ccc(-c5ccccc5)nc4c3)c3c(N)nccn32)C1 [Linsitinib] (partner 1 µM)
In short: as §1

BAY61-3606 + Dasatinib = compound: COC1=C(C=C(C=C1)C2=CC3=NC=CN3C(=N2)NC4=C(C=CC=N4)C(=O)N)OC [BAY61-3606] + Cc1nc(Nc2ncc(C(=O)Nc3c(C)cccc3Cl)s2)cc(N2CCN(CCO)CC2)n1 [Dasatinib] (partner 0.075 µM)
In short: as §1

Doxorubicin + Lapatinib = compound: COc1cccc2c1C(=O)c1c(O)c3c(c(O)c1C2=O)C[C@@](O)(C(=O)CO)C[C@@H]3O[C@H]1C[C@H](N)[C@H](O)[C@H](C)O1 [Doxorubicin] + CS(=O)(=O)CCNCc1ccc(-c2ccc3ncnc(Nc4ccc(OCc5cccc(F)c5)c(Cl)c4)c3c2)o1 [Lapatinib] (partner 2 µM)
In short: as §1

| Cell Line | relative viability (BAY61-3606 + Pemetrexed; first compound 0.02 µM) | relative viability (BAY61-3606 + Pemetrexed; first compound 0.06325 µM) | relative viability (BAY61-3606 + Pemetrexed; first compound 0.2 µM) | relative viability (BAY61-3606 + Pemetrexed; first compound 0.6325 µM) | relative viability (BAY61-3606 + Pemetrexed; first compound 2 µM) | relative viability (BAY61-3606 + Linsitinib; first compound 0.02 µM) | relative viability (BAY61-3606 + Linsitinib; first compound 0.06325 µM) | relative viability (BAY61-3606 + Linsitinib; first compound 0.2 µM) | relative viability (BAY61-3606 + Linsitinib; first compound 0.6325 µM) | relative viability (BAY61-3606 + Linsitinib; first compound 2 µM) | relative viability (BAY61-3606 + Dasatinib; first compound 0.02 µM) | relative viability (BAY61-3606 + Dasatinib; first compound 0.06325 µM) | relative viability (BAY61-3606 + Dasatinib; first compound 0.2 µM) | relative viability (BAY61-3606 + Dasatinib; first compound 0.6325 µM) | relative viability (BAY61-3606 + Dasatinib; first compound 2 µM) | relative viability (Doxorubicin + Lapatinib; first compound 0.001 µM) | relative viability (Doxorubicin + Lapatinib; first compound 0.003162 µM) | relative viability (Doxorubicin + Lapatinib; first compound 0.01 µM) | relative viability (Doxorubicin + Lapatinib; first compound 0.03162 µM) | relative viability (Doxorubicin + Lapatinib; first compound 0.1 µM) |
| --- | --- | --- | --- | --- | --- | --- | --- | --- | --- | --- | --- | --- | --- | --- | --- | --- | --- | --- | --- | --- |
| LK-2 | 0.245 | 0.232 | 0.384 | 0.288 | 0.252 | 0.487 | 0.529 | 0.691 | 0.834 | 0.412 | 0.334 | 0.217 | 0.347 | 0.368 | 0.379 | 0.879 | 0.74 | 0.804 | 0.724 | 0.81 |
| NCI-H2228 | 0.326 | 0.325 | 0.391 | 0.393 | 0.369 | 0.663 | 0.552 | 0.668 | 0.714 | 0.496 | 0.572 | 0.498 | 0.571 | 0.46 | 0.278 | 0.971 | 0.962 | 0.65 | 0.187 | 0.119 |
| NCI-H460 | 0.0615 | 0.0666 | 0.0787 | 0.0676 | 0.0667 | 1.03 | 0.77 | 0.752 | 0.822 | 0.189 | 0.574 | 0.493 | 0.533 | 0.421 | 0.284 | 0.86 | 0.592 | 0.247 | 0.0187 | 0.0161 |
| NCI-H1993 | 0.642 | 0.564 | 0.541 | 0.57 | 0.461 | 0.688 | 0.748 | 0.723 | 0.7 | 0.741 | 0.581 | 0.56 | 0.566 | 0.521 | 0.491 | 0.823 | 0.778 | 0.748 | 0.633 | 0.501 |
| NCI-H2170 | 0.285 | 0.268 | 0.278 | 0.258 | 0.269 |  |  |  |  |  | 0.64 | 0.508 | 0.539 | 0.465 | 0.352 | 0.263 | 0.264 | 0.259 | 0.266 | 0.285 |
| LXF-289 | 0.94 | 0.939 | 0.901 | 0.946 | 0.907 | 0.906 | 1.02 | 0.948 | 1.05 | 0.569 | 0.261 | 0.205 | 0.187 | 0.187 | 0.129 | 0.865 | 0.886 | 0.864 | 0.891 | 0.823 |
| NCI-H596 | 0.454 | 0.511 | 0.534 | 0.555 | 0.486 | 1.16 | 0.962 | 1 | 1.02 | 0.954 | 0.644 | 0.481 | 0.618 | 0.594 | 0.489 | 1.08 | 1.1 | 1.05 | 0.943 | 1.03 |
| NCI-H3122 | 0.208 | 0.219 | 0.211 | 0.187 | 0.201 | 1.08 | 1.08 | 0.974 | 0.924 | 0.918 | 0.838 | 0.882 | 0.736 | 0.897 | 0.691 | 1.02 | 1 | 1.02 | 1 | 0.958 |
| NCI-H1299 |  |  |  |  |  | 0.977 | 1.03 | 0.994 | 1 | 0.89 |  |  |  |  |  | 0.988 | 0.973 | 0.955 | 0.889 | 0.514 |
| ABC-1 |  |  |  |  |  | 0.774 | 0.948 | 0.879 | 0.827 | 0.631 | 0.658 | 0.653 | 0.557 | 0.553 | 0.476 | 1.14 | 1.54 | 0.975 | 1.07 | 1.1 |
| LCLC-103H | 0.437 | 0.441 | 0.457 | 0.462 | 0.446 | 1.07 | 1.13 | 1.12 | 1.37 | 1.13 | 0.537 | 0.407 | 0.465 | 0.55 | 0.446 |  |  |  |  |  |
| IA-LM |  |  |  |  |  | 0.52 | 0.573 | 0.559 | 0.662 | 0.354 |  |  |  |  |  | 0.845 | 0.957 | 0.638 | 0.18 | 0.112 |
| ChaGo-K-1 | 0.265 | 0.268 | 0.253 | 0.265 | 0.253 |  |  |  |  |  | 0.566 | 0.547 | 0.591 | 0.548 | 0.596 |  |  |  |  |  |
| NCI-H1703 |  |  |  |  |  | 0.596 | 0.389 | 0.842 | 0.808 | 0.341 |  |  |  |  |  | 0.821 | 1.14 | 0.448 | 0.241 | 0.21 |
| SW 900 | 0.473 |  |  | 0.465 | 0.358 |  |  |  |  |  | 0.84 | 0.559 | 0.706 | 0.457 | 0.303 |  |  |  |  |  |
| NCI-H727 |  |  |  |  |  | 0.258 | 0.184 | 0.386 | 0.188 | 0.354 | 0.364 | 0.438 | 0.339 | 0.333 | 0.386 | 0.76 | 0.784 | 0.792 | 0.666 | 0.681 |
| NCI-H1650 | 0.351 | 0.356 | 0.42 | 0.46 | 0.331 |  |  |  |  |  | 0.304 | 0.261 | 0.3 | 0.296 | 0.245 | 0.208 | 0.612 | 0.25 | 0.202 | 0.14 |
| A549 |  |  |  |  |  | 0.765 | 0.63 | 0.642 | 0.77 | 0.588 |  |  |  |  |  | 0.922 | 0.954 | 0.415 | 0.0939 | 0.0714 |
| NCI-H2342 | 0.748 | 0.774 | 0.716 | 0.825 | 0.811 |  |  |  |  |  | 0.297 | 0.32 | 0.319 | 0.311 | 0.367 |  |  |  |  |  |
| NCI-H1623 |  |  |  |  |  |  |  |  |  |  | 0.556 | 0.557 | 0.533 | 0.522 | 0.501 |  |  |  |  |  |
| NCI-H522 | 1.15 | 0.966 | 1.04 | 0.907 | 0.817 |  |  |  |  |  | 0.838 | 0.792 | 0.975 | 0.832 | 0.747 |  |  |  |  |  |
| EBC-1 |  |  |  |  |  | 1.02 | 0.91 | 0.835 | 0.949 | 0.628 |  |  |  |  |  | 0.236 | 0.21 | 0.22 | 0.195 | 0.181 |
